From US12084458B2, “Substituted pyridines, pyridazines, and pyrimidines as TYK2 inhibitors” (Sudo Biosciences Limited, priority 2021, dated 2024)

Assays:
JAK2 kinase domain (JH1) = biological target: T1, JAK2 kinase domain (JH1) (Homo sapiens, UniProt O60674); experiment: HTRF-based selectivity assay, JAK2 catalytic domain; type: biochemical; details: recombinant catalytic domain, ATP 14.7 μM
T1 construct: recombinant purified His or GST-tagged catalytic domain for each enzyme; made in house
Description: (§1) Example B-2: HTRF-Based Selectivity Assay
(§2) The ability of compounds to inhibit the activity of JAK1, JAK2, JAK3 and TYK2 is measured using a recombinant purified His or GST-tagged catalytic domain for each enzyme (JAK1, JAK2 and TYK2 are generated in-house; JAK3 was purchased from Carna biosciences, Cat #08-046) in an HTRF format biochemical assay. The reactions employs a commercial peptide substrate from Cisbio (Cat #62TK0PEC). The basic assay protocol is as follows: first, 2.5 μL of diluted compounds (4×) in DMSO are dispensed into a 384-well Optiplate. Next, 2.5 μL of enzyme (final concentrations for enzymes are: TYK2—700 ng/mL, JAK1—80.6 ng/mL, JAK2—2.1 ng/mL and JAK3—171.8 ng/mL) is added and incubated at RT for 5-20 min. Finally, 5 μl of mixture of 2× ATP [Final concentration 20 μM for TYK2, 21.43 μM for JAK1, 14.7 μM for JAK2 and 2.12 μM for JAK3]+2× Substrate [Final concentration 217 nM for TYK2, 454.7 nM for JAK1, 200 nM for JAK2 and 257.4 nM for JAK3] is added to 384 well Optiplate. Composition of Kinase assay buffer used in the assay is as follows: HEPES 50 mM, EGTA 1 mM, MgCl2 10 mM, DTT 2 mM, Tween-20 0.01% and water. Then the plates are shaken and then incubated at 26.5° C. for 60 min.

JAK1 kinase domain (JH1) = biological target: T2, JAK1 kinase domain (JH1) (Homo sapiens, UniProt P23458); experiment: HTRF-based selectivity assay, JAK1 catalytic domain; type: biochemical; details: recombinant catalytic domain, ATP 21.43 μM
T2 construct: recombinant purified His or GST-tagged catalytic domain for each enzyme; made in house
T2 sequence (P23458 875-1153 limits assumed): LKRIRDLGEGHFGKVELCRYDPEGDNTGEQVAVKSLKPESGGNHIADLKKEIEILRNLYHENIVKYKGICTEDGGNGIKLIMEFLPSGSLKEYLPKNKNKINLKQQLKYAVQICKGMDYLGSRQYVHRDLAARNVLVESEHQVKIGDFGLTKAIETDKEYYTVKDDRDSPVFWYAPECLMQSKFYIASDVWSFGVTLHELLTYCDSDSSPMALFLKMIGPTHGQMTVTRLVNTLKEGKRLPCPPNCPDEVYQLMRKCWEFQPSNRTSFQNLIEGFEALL
Description: as §1, §2

JAK3 kinase domain (JH1) = biological target: T3, JAK3 kinase domain (JH1) (Homo sapiens, UniProt P52333); experiment: HTRF-based selectivity assay, JAK3 catalytic domain; type: biochemical; details: recombinant catalytic domain, ATP 2.12 μM
T3 construct: recombinant purified His or GST-tagged catalytic domain for each enzyme; purchased Carna biosciences 08-046
T3 sequence (P52333 822-1111 limits assumed): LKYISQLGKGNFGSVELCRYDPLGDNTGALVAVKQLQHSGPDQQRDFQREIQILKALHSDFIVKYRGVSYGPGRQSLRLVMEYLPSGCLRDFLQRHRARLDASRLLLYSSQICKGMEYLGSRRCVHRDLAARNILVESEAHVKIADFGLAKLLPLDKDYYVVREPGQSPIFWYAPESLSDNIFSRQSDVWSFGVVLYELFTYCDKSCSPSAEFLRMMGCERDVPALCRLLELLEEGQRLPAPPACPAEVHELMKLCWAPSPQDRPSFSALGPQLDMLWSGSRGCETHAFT
Description: as §1, §2

TYK2 kinase domain (JH1) = biological target: T4, TYK2 kinase domain (JH1) (Homo sapiens, UniProt P29597); experiment: HTRF-based selectivity assay, TYK2 catalytic domain; type: biochemical; details: recombinant catalytic domain, ATP 20 μM
T4 construct: recombinant purified His or GST-tagged catalytic domain for each enzyme; made in house
T4 sequence (P29597 897-1176 limits assumed): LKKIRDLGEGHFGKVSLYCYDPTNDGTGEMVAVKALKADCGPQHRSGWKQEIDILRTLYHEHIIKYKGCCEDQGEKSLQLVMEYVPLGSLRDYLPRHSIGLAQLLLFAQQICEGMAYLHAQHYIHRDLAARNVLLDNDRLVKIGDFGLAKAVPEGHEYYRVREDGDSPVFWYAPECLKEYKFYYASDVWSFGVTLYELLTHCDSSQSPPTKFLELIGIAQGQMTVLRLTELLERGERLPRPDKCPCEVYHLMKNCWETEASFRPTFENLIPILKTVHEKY
Description: as §1, §2

[1] = system: HEK-Blue IL-2 reporter cells (IL-2-stimulated STAT5 SEAP reporter); experiment: HEK-Blue IL-2 SEAP reporter assay for determining selectivity; type: cell-based; details: 4 ng/mL human recombinant IL-2
Method in brief: (§3)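 Cells were plated for 20-22 h, then pretreated with serially diluted compound for 60 min. They were stimulated for 24 h with 4 ng/mL human recombinant IL-2 or 50 ng/mL human recombinant IFNγ, and SEAP induction was read with QUANTI-Blue.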

[2] = system: HEK-Blue IFNα/β cells (IFNα-stimulated STAT1 SEAP reporter; TYK2 JH2); experiment: HEK-Blue IFNα/β SEAP reporter assay for profiling TYK2 pseudokinase (JH2) inhibition; type: cell-based; details: Homo sapiens, HEK-Blue, 1 ng/mL human recombinant IFNα, read-out: IFNα (TYK2 inhibitory activity, IC50)
Method in brief: (§4)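 SEAP read-out (QUANTI-Blue) after cytokine stimulation: IL-23 line given 10 ng/mL human IL-23 for 22-24 h; IFNα/β line given 1 ng/mL human IFNα for 16-18 h. Serially diluted compounds added 60 min before cytokine, to cells plated 20-22 h beforehand.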

[3] = system: HEK-Blue IL-23 cells (IL-23-stimulated STAT3 SEAP reporter; TYK2 JH2); experiment: HEK-Blue IL-23 SEAP reporter assay for profiling TYK2 pseudokinase (JH2) inhibition; type: cell-based; details: 10 ng/mL human recombinant IL-23, SEAP reporter, read-out: IL23 (TYK2 inhibitory activity, IC50)
Method in brief: as §4

[4] = system: HEK-Blue IFNγ reporter cells (IFNγ-stimulated STAT1 SEAP reporter); experiment: HEK-Blue IFNγ SEAP reporter assay for determining selectivity; type: cell-based; details: Homo sapiens, HEK-Blue, 50 ng/mL human recombinant IFNγ, read-out: IFN-γ (SEAP selectivity, IC50)
Method in brief: as §3

T1 sequence (O60674 849-1124 limits assumed): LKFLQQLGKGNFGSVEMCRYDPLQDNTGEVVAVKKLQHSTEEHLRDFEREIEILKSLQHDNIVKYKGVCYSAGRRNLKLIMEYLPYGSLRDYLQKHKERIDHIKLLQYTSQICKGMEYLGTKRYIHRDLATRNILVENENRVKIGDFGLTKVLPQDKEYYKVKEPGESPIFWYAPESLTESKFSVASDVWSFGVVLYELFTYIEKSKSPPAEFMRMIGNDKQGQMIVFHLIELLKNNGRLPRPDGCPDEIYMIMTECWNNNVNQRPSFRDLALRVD

| SMILES | IC50 (JAK2 kinase domain (JH1)) | IC50 (JAK1 kinase domain (JH1)) | IC50 (JAK3 kinase domain (JH1)) | IC50 (TYK2 kinase domain (JH1)) | IC50 [1] | IC50 [2] | IC50 [3] | IC50 [4] |
| --- | --- | --- | --- | --- | --- | --- | --- | --- |
| [2H]C([2H])([2H])NC(=O)c1nnc(NC(=O)[C@H]2C[C@H]2F)cc1Nc1cccc2c1N(C)Cc1nc(C)nn1-2 (single isomer, unassigned) [Compound 8] | > 1 µM | > 1 µM | > 1 µM | > 1 µM | > 1 µM | 0.03 to 0.3 µM | < 0.03 µM |  |
| [2H]C([2H])([2H])NC(=O)c1cnc(NC(=O)C2CC2)cc1Nc1cccc2c1N(C)Cc1nc(C)nn1-2 [Compound 4, 6-(cyclopropanecarboxamido)-4-((2,5-dimethyl-4,5-dihydro-[1,2,4]triazolo[1,5-a]quinoxalin-6-yl)amino)-N-(methyl-d3)nicotinamide] |  | > 1 µM | > 1 µM | > 1 µM | > 1 µM | < 0.03 µM | < 0.03 µM | 0.3 to 1 µM |
| [2H]C([2H])([2H])NC(=O)c1nnc(NC(=O)C2CC2)cc1Nc1cccc2c1N(C)Cc1nc(C)nn1-2 [Compound 5, 6-(cyclopropanecarboxamido)-4-((2,5-dimethyl-4,5-dihydro-[1,2,4]triazolo[1,5-a]quinoxalin-6-yl)amino)-N-(methyl-d3)pyridazine-3-carboxamide] | > 1 µM | > 1 µM | > 1 µM | > 1 µM | > 1 µM | < 0.03 µM | < 0.03 µM | 0.03 to 0.3 µM |
| [2H]C([2H])([2H])NC(=O)c1nnc(Nc2ccc(C(F)(F)F)cn2)cc1Nc1cccc2c1N(C)Cc1nc(C)nn1-2 [Compound 10, 4-((2,5-dimethyl-4,5-dihydro-[1,2,4]triazolo[1,5-a]quinoxalin-6-yl)amino)-N-(methyl-d3)-6-((5-(trifluoromethyl)pyridin-2-yl)amino)pyridazine-3-carboxamide] | > 1 µM | > 1 µM | > 1 µM | > 1 µM | > 1 µM | 0.03 to 0.3 µM | < 0.03 µM |  |
| [2H]C([2H])([2H])NC(=O)c1nnc(Nc2ccc(C)cn2)cc1Nc1cccc2c1N(C)Cc1nc(C)nn1-2 [Compound 11, 4-((2,5-dimethyl-4,5-dihydro-[1,2,4]triazolo[1,5-a]quinoxalin-6-yl)amino)-N-(methyl-d3)-6-((5-methylpyridin-2-yl)amino)pyridazine-3-carboxamide] | > 1 µM | > 1 µM | > 1 µM | > 1 µM |  | < 0.03 µM | < 0.03 µM |  |
| [2H]C([2H])([2H])NC(=O)c1nnc(Nc2ccc(F)cn2)cc1Nc1cccc2c1N(C)Cc1nc(C)nn1-2 [Compound 12, 4-((2,5-dimethyl-4,5-dihydro-[1,2,4]triazolo[1,5-a]quinoxalin-6-yl)amino)-6-((5-fluoropyridin-2-yl)amino)-N-(methyl-d3)pyridazine-3-carboxamide] | > 1 µM | > 1 µM | > 1 µM | > 1 µM | 0.03 to 0.3 µM | < 0.03 µM | < 0.03 µM |  |
| [2H]C([2H])([2H])NC(=O)c1nnc(Nc2ccc(C#N)cn2)cc1Nc1cccc2c1N(C)Cc1nc(C)nn1-2 [Compound 13, 6-((5-cyanopyridin-2-yl)amino)-4-((2,5-dimethyl-4,5-dihydro-[1,2,4]triazolo[1,5-a]quinoxalin-6-yl)amino)-N-(methyl-d3)pyridazine-3-carboxamide] | > 1 µM | > 1 µM | > 1 µM | > 1 µM | > 1 µM | < 0.03 µM | < 0.03 µM |  |
| [2H]C([2H])([2H])NC(=O)c1cnc(NC(=O)C2CC2)cc1Nc1cccc2c1N(C)Cc1nn(C)nc1-2 [Compound 45, 6-(cyclopropanecarboxamido)-4-((2,5-dimethyl-4,5-dihydro-2H-[1,2,3]triazolo[4,5-c]quinolin-6-yl)amino)-N-(methyl-d3)nicotinamide] | > 1 µM | > 1 µM | > 1 µM |  | > 1 µM | < 0.03 µM | < 0.03 µM | 0.03 to 0.3 µM |
| [2H]C([2H])([2H])NC(=O)c1nnc(NC(=O)C2CC2)cc1Nc1cccc2c1N(C)Cc1nn(C)nc1-2 [Compound 46, 6-(cyclopropanecarboxamido)-4-((2,5-dimethyl-4,5-dihydro-2H-[1,2,3]triazolo[4,5-c]quinolin-6-yl)amino)-N-(methyl-d3)pyridazine-3-carboxamide] | > 1 µM | > 1 µM | > 1 µM |  | > 1 µM | < 0.03 µM | < 0.03 µM | 0.03 to 0.3 µM |
| [2H]C([2H])([2H])NC(=O)c1cnc(NC(=O)C2CC2)cc1Nc1cccc2c1N(C([2H])([2H])[2H])Cc1nn(C)nc1-2 [Compound 47, 6-(cyclopropanecarboxamido)-N-(methyl-d3)-4-((2-methyl-5-(methyl-d3)-4,5-dihydro-2H-[1,2,3]triazolo[4,5-c]quinolin-6-yl)amino)nicotinamide] |  | > 1 µM | > 1 µM | > 1 µM | > 1 µM | < 0.03 µM | < 0.03 µM | 0.03 to 0.3 µM |
| [2H]C([2H])([2H])NC(=O)c1cnc(NC(=O)C2CC2)cc1Nc1cccc2c1N(C)C([2H])([2H])c1nn(C)nc1-2 [Compound 52, 6-(cyclopropanecarboxamido)-4-((2,5-dimethyl-4,5-dihydro-2H-[1,2,3]triazolo[4,5-c]quinolin-6-yl-4,4-d2)amino)-N-(methyl-d3)nicotinamide] | > 1 µM | > 1 µM | > 1 µM | > 1 µM | > 1 µM | < 0.03 µM | < 0.03 µM |  |
| [2H]C([2H])([2H])NC(=O)c1cnc(NC(=O)C2CC2)cc1Nc1cccc2c1N(C)CCn1cnnc1-2 [Compound 78, 6-(cyclopropanecarboxamido)-N-(methyl-d3)-4-((7-methyl-6,7-dihydro-5H-benzo[f][1,2,4]triazolo[4,3-d][1,4]diazepin-8-yl)amino)nicotinamide] | > 1 µM | > 1 µM | > 1 µM | > 1 µM |  | > 1 µM | 0.03 to 0.3 µM |  |
| [2H]C([2H])([2H])NC(=O)c1nnc(NC(=O)C2CC2)cc1Nc1nccc2c1N(C)Cc1nn(C)nc1-2 [Compound 88, 6-(cyclopropanecarboxamido)-4-((2,5-dimethyl-4,5-dihydro-2H-[1,2,3]triazolo[4,5-c][1,7]naphthyridin-6-yl)amino)-N-(methyl-d3)pyridazine-3-carboxamide] | > 1 µM | > 1 µM |  | > 1 µM | 0.3 to 1 µM | < 0.03 µM | < 0.03 µM | 0.03 to 0.3 µM |
| [2H]C([2H])([2H])NC(=O)c1cnc(NC(=O)C2CC2)cc1Nc1nccc2c1N(C)Cc1nn(C)nc1-2 [Compound 89, 6-(cyclopropanecarboxamido)-4-((2,5-dimethyl-4,5-dihydro-2H-[1,2,3]triazolo[4,5-c][1,7]naphthyridin-6-yl)amino)-N-(methyl-d3)nicotinamide] | > 1 µM | > 1 µM | > 1 µM | > 1 µM | > 1 µM | < 0.03 µM | < 0.03 µM |  |
